What was measured:
[1] = test system: dogs with naturally occurring coxofemoral joint disease; assay: PAH-100 oral tablet efficacy (PAH16-013), kinetic gait analysis; details: for abnormal clinical observations or adverse events: nine hound dogs, each received all treatments, PAH-100 single oral 3 mg/kg, carprofen 4.4 mg/kg PO q24 hr, 7 doses
Experimental: (§1) Efficacy was determined by rear limb using a quantified kinetic gait analysis.

[2] = test system: dogs with naturally occurring coxofemoral joint disease; details: dog, in vivo, po, 3 mg/kg
Experimental: as §1

## O=C(O)C1=Cc2cc(OC(F)(F)F)ccc2OC1C(F)(F)F (racemic) [PAH-100, (±)-6-(trifluoromethoxy)-2-(trifluoromethyl)-2H-chromene-3-carboxylic acid]
[1]; dogs with coxofemoral joint osteoarthritis, single oral 3 mg/kg, over 7 days, majority of kinetic outcomes
  limb use by kinetic gait analysis, compared to no treatment and daily carprofen: improved limb use
[1]
  abnormal clinical observations or adverse events: No abnormal clinical observations or adverse events
[2]
  tolerability: well tolerated

## CC(C(=O)O)c1ccc2c(c1)[nH]c1ccc(Cl)cc12 (stereo not shown) [carprofen, reference compound]
[1]
  abnormal clinical observations or adverse events: No abnormal clinical observations or adverse events

Source: patent publication US20210186923A1, “THERAPEUTIC FORMULATIONS AND USES THEREOF” (PIEDMONT ANIMAL HEALTH INC., priority 2017, published 2021)
